Among the data in US20240199546A1, “INHIBITORS OF SOLUTE CARRIER FAMILY 6A MEMBER 19 (SLC6A19) AND METHODS OF USE THEREOF” (Maze Therapeutics, Inc., priority 2022, published 2024) are IC50 values, retold here.

SMILES strings stand for the structures.

What is called IC50 is the concentration that inhibits the measured activity by half.

For the assay, the target named is T1, human SLC6A19 and TMEM27 (Homo sapiens, UniProt Q695T7).
T1 construct: expressed in transfected cells
T1 sequence (Q695T7 1-634): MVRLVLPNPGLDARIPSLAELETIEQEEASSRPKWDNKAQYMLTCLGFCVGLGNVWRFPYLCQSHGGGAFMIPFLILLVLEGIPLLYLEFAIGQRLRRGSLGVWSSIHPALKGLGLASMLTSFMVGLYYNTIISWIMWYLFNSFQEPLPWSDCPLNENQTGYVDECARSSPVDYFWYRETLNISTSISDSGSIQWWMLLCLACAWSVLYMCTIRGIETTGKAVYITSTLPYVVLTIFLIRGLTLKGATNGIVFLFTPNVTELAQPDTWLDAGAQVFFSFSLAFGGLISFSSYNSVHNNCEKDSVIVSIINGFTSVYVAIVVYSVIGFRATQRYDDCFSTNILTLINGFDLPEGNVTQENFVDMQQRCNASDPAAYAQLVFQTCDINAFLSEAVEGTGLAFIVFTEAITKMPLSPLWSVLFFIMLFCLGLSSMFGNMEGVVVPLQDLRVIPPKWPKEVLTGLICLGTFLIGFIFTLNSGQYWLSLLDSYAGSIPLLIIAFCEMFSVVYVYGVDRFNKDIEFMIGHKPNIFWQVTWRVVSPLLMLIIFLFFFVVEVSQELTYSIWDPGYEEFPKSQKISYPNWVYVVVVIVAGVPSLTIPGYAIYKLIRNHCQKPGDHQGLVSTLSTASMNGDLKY
T1 sequence (Q9HBJ8 15-222 partner): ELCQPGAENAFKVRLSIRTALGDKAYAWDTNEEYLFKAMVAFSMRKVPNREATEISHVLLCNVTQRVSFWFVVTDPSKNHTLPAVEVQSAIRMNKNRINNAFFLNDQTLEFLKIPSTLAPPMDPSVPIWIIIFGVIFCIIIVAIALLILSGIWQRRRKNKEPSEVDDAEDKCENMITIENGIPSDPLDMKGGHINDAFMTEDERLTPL
As to the kind of experiment: Radiolabelled (3H) leucine uptake in CHO cells with doxycycline-inducible expression of human SLC6A19 and TMEM27 (Example B-1). To be noted: CHO cells with doxycycline-inducible expression of human SLC6A19 and TMEM27, read-out: SLC6A19_Radioligand Uptake Assay IC50. The class given is cell-based. The essentials: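 CHO cells were induced with doxycycline for 18 h at 37 °C, washed in HBSS, then exposed to compounds for 1 h: 8-point, 3-fold dilutions in duplicate, 0.5% DMSO final. Uptake measured by scintillation counting after 2 h shaking. Activity normalized with positive control as 0% and DMSO as 100%.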
Consider `Cc1cc(COc2cc3[nH]c(CNC(=O)[C@@H]4CCO4)cc3cc2Cl)on1` [Compound 276, (S)-N-((5-chloro-6-((3-methylisoxazol-5-yl)methoxy)-1H-indol-2-yl)methyl)oxetane-2-carboxamide], for which the IC50 worked out at 94 nM.
`Cc1cc(COc2cc3[nH]c(CNC(=O)[C@H]4C[C@H](O)C4)cc3cc2Cl)on1` [Compound 252, (1R,3R)-N-((5-chloro-6-((3-methylisoxazol-5-yl)methoxy)-1H-indol-2-yl)methyl)-3-hydroxycyclobutane-1-carboxamide]: the IC50 is 628 nM.
Turning to `O=C(NCc1cc2cc(F)c(OCc3ccon3)cc2[nH]1)N1CCCC1` [Compound 116, N-((5-fluoro-6-(isoxazol-3-ylmethoxy)-1H-indol-2-yl)methyl)pyrrolidine-1-carboxamide], the IC50 is 157 nM.
Consider `Cc1cc(COc2cc3[nH]c(CNC(=O)C4(C#N)CCC4)cc3cc2Cl)on1` [Compound 487, N-((5-chloro-6-((3-methylisoxazol-5-yl)methoxy)-1H-indol-2-yl)methyl)-1-cyanocyclobutane-1-carboxamide], for which the IC50 came to 367 nM.
As for `O=C(NCc1cc2cc(Cl)c(OCc3cscn3)cc2[nH]1)[C@@H]1C[C@@H]1F` [Compound 542, (1S,2S)-N-((5-chloro-6-(thiazol-4-ylmethoxy)-1H-indol-2-yl)methyl)-2-fluorocyclopropane-1-carboxamide], the figure is 123 nM.
Then `Cc1cc(COc2cc3[nH]c(CNC(=O)[C@H]4CCCN4)cc3cc2Cl)on1` [Compound 618, (R)—N-((5-chloro-6-((3-methylisoxazol-5-yl)methoxy)-1H-indol-2-yl)methyl)pyrrolidine-2-carboxamide], with 7510 nM; and `O=C(NCc1cc2cc(Cl)c(OCc3cscn3)cc2[nH]1)C1(C(F)F)CC1` [Compound 559, N-((5-chloro-6-(thiazol-4-ylmethoxy)-1H-indol-2-yl)methyl)-1-(difluoromethyl)cyclopropane-1-carboxamide], with 196 nM; and `CC1(C(=O)NCc2cc3ccc(OCC45CC(C4)C5)cc3[nH]2)CC1` [Compound 189, N-((6-(bicyclo[1.1.1]pentan-1-ylmethoxy)-1H-indol-2-yl)methyl)-1-methylcyclopropane-1-carboxamide], with 9830 nM.
As for `Cc1cc(COc2cc3[nH]c(CNC(=O)C4(O)CC4)cc3cc2Cl)on1` [Compound 251, N-((5-chloro-6-((3-methylisoxazol-5-yl)methoxy)-1H-indol-2-yl)methyl)-1-hydroxycyclopropane-1-carboxamide], the figure is 194 nM; as for `CC1(C(=O)NCc2cc3cc(OC(F)F)c(OCc4ccon4)cc3[nH]2)CC1` [Compound 605, N-((5-(difluoromethoxy)-6-(isoxazol-3-ylmethoxy)-1H-indol-2-yl)methyl)-1-methylcyclopropane-1-carboxamide], 143 nM; as for `CC1(C(=O)NCc2cc3cc(Cl)c(OCCC4CC4)cc3[nH]2)CC1` [Compound 635, N-((5-chloro-6-(2-cyclopropylethoxy)-1H-indol-2-yl)methyl)-1-methylcyclopropane-1-carboxamide], 193 nM.
Turning to `O=C(NCc1cc2cc(Cl)c(CCc3cscn3)cc2[nH]1)N1CCC1` [Compound 599, N-((5-chloro-6-(2-(thiazol-4-yl)ethyl)-1H-indol-2-yl)methyl)azetidine-1-carboxamide], the IC50 amounted to 163 nM.
Consider `CC1(C(=O)NCc2cc3c(F)c(F)c(OCc4cscn4)cc3[nH]2)CC1` [Compound 526, N-((4,5-difluoro-6-(thiazol-4-ylmethoxy)-1H-indol-2-yl)methyl)-1-methylcyclopropane-1-carboxamide], for which the IC50 amounted to 156 nM.
As to `CC(F)(F)C(=O)NCc1cc2cc(Cl)c(OCc3cscn3)cc2[nH]1` [Compound 435, N-((5-chloro-6-(thiazol-4-ylmethoxy)-1H-indol-2-yl)methyl)-2,2-difluoropropanamide], the IC50 is 133 nM.
Then `O=C(NCc1cc2cc(OC(F)(F)F)c(OCc3ccon3)cc2[nH]1)N1CCC1` [Compound 416, N-((6-(isoxazol-3-ylmethoxy)-5-(trifluoromethoxy)-1H-indol-2-yl)methyl)azetidine-1-carboxamide], with 379 nM; and `CO[C@H](C)C(=O)NCc1cc2cc(Cl)c(OCc3cscn3)cc2[nH]1` [Compound 292, (R)-N-((5-chloro-6-(thiazol-4-ylmethoxy)-1H-indol-2-yl)methyl)-2-methoxypropanamide], with 666 nM.
With `O=C(NCc1cc2cc(Cl)c(OCc3cscn3)cc2[nH]1)N1CCC(F)C1` (stereo not drawn) [Compound 93, N-((5-chloro-6-(thiazol-4-ylmethoxy)-1H-indol-2-yl)methyl)-3-fluoropyrrolidine-1-carboxamide], the IC50 came out at 177 nM.
Consider `Cc1cc(COc2cc3[nH]c(CNC(=O)CC4(C)COC4)cc3cc2Cl)on1` [Compound 288, N-((5-chloro-6-((3-methylisoxazol-5-yl)methoxy)-1H-indol-2-yl)methyl)-2-(3-methyloxetan-3-yl)acetamide], for which the half-inhibitory concentration (IC50) was determined as 3260 nM.
On to `Cc1cc(COc2cc(F)c3cc(CNC(=O)N4CCC4)[nH]c3c2)on1` [Compound 427, N-((4-fluoro-6-((3-methylisoxazol-5-yl)methoxy)-1H-indol-2-yl)methyl)azetidine-1-carboxamide], for which the IC50 was determined as 634 nM.
Then `O=C(CCO)NCc1cc2cc(Cl)c(OCc3cscn3)cc2[nH]1` [Compound 309, N-((5-chloro-6-(thiazol-4-ylmethoxy)-1H-indol-2-yl)methyl)-3-hydroxypropanamide], with 1750 nM; and `Cc1cc(COc2cc3[nH]c(CNC(=O)[C@H](C)O)cc3cc2F)on1` [Compound 239, (S)-N-((5-fluoro-6-((3-methylisoxazol-5-yl)methoxy)-1H-indol-2-yl)methyl)-2-hydroxypropanamide], with 5880 nM; and `O=C(NCc1cc2cc(OC(F)(F)F)c(OCc3cocn3)cc2[nH]1)N1CCC1` [Compound 480, N-((6-(oxazol-4-ylmethoxy)-5-(trifluoromethoxy)-1H-indol-2-yl)methyl)azetidine-1-carboxamide], with 372 nM.
Then `CCOC(=O)NCc1cc2cc(Cl)c(OCc3cscn3)cc2[nH]1` [Compound 620, ethyl ((5-chloro-6-(thiazol-4-ylmethoxy)-1H-indol-2-yl)methyl)carbamate], with 182 nM.
With `CC(=O)NCc1cc2cc(F)c(OCc3cocn3)cc2[nH]1` [Compound 224, N-((5-fluoro-6-(oxazol-4-ylmethoxy)-1H-indol-2-yl)methyl)acetamide], the IC50 was determined as 545 nM.
As for `O=C(NCc1cc2cc(F)c(CCc3cscn3)cc2[nH]1)N1CCC1` [Compound 600, N-((5-fluoro-6-(2-(thiazol-4-yl)ethyl)-1H-indol-2-yl)methyl)azetidine-1-carboxamide], the figure is 145 nM; as for `O=C(NCc1cc2cc(F)c(OCc3cscn3)cc2[nH]1)C1(CO)CC1` [Compound 255, N-((5-fluoro-6-(thiazol-4-ylmethoxy)-1H-indol-2-yl)methyl)-1-(hydroxymethyl)cyclopropane-1-carboxamide], 1360 nM; as for `COC1CN(C(=O)NCc2cc3cc(Cl)c(OCc4cscn4)cc3[nH]2)C1` [Compound 364, N-((5-chloro-6-(thiazol-4-ylmethoxy)-1H-indol-2-yl)methyl)-3-methoxyazetidine-1-carboxamide], 690 nM.
